Values after ≈ are worked out from the molar mass of the structure shown.
Assays:
[1] = system: Acinetobacter haemolyticus; test: Antibacterial activity against Acinetobacter haemolyticus expressing carbapenemase-encoding blaOXA-40 gene by Etest method; type: functional
Acinetobacter baumannii [2] = test: Antibacterial activity against Acinetobacter baumannii B clone by Etest method; type: functional
Acinetobacter baumannii [3] = test: Antibacterial activity against Acinetobacter baumannii C clone by Etest method; type: functional
Acinetobacter baumannii [4] = test: Antibacterial activity against Acinetobacter baumannii A clone expressing carbapenemase-encoding blaOXA-40 gene by Etest method; type: functional
[5] = system: Acinetobacter haemolyticus; test: Antibacterial activity against Acinetobacter haemolyticus expressing carbapenemase-encoding blaOXA-40 gene by agar dilution method; type: functional, organism-based
Acinetobacter baumannii [6] = test: Antibacterial activity against Acinetobacter baumannii A clone expressing carbapenemase-encoding blaOXA-40 gene by agar dilution method; type: functional, organism-based
Acinetobacter baumannii [7] = test: Antibacterial activity against Acinetobacter baumannii C clone by agar dilution method; type: functional, organism-based
Acinetobacter baumannii [8] = test: Antibacterial activity against Acinetobacter baumannii B clone by agar dilution method; type: functional, organism-based

| Compound | MIC [1] [µg/mL] | MIC (Acinetobacter baumannii [2]) [µg/mL] | MIC (Acinetobacter baumannii [3]) [µg/mL] | MIC (Acinetobacter baumannii [4]) [µg/mL] | MIC [5] [µg/mL] | MIC (Acinetobacter baumannii [6]) [µg/mL] | MIC (Acinetobacter baumannii [7]) [µg/mL] | MIC (Acinetobacter baumannii [8]) [µg/mL] |
| --- | --- | --- | --- | --- | --- | --- | --- | --- |
| CO/N=C(\C(=O)N[C@@H]1C(=O)N2C(C(=O)[O-])=C(C[N+]3(C)CCCC3)CS[C@H]12)c1csc(N)n1 | 4 (≈ 8.32 µM) |  |  |  |  |  |  |  |
| CC1(C)S[C@@H]2[C@H](NC(=O)[C@H](N)c3ccc(O)cc3)C(=O)N2[C@H]1C(=O)O [AMOXICILLIN] | ≥ 256 | > 64 | 128 (≈ 350 µM) | ≥ 256 |  |  |  |  |
| C[C@H]1[C@H](NC(=O)/C(=N\OC(C)(C)C(=O)O)c2csc(N)n2)C(=O)N1S(=O)(=O)O [AZTREONAM] | 4 (≈ 9.19 µM) |  |  |  |  |  |  |  |
| CO[C@@]1(NC(=O)Cc2cccs2)C(=O)N2C(C(=O)O)=C(COC(N)=O)CS[C@@H]21 [CEFOXITIN] | 32 (≈ 74.9 µM) | ≥ 256 | ≥ 256 | ≥ 256 |  |  |  |  |
| CC(C)(O/N=C(\C(=O)N[C@@H]1C(=O)N2C(C(=O)[O-])=C(C[n+]3ccccc3)CS[C@H]12)c1csc(N)n1)C(=O)O [CEFTAZIDIME] | 4 (≈ 7.32 µM) | 4 (≈ 7.32 µM) | 4 (≈ 7.32 µM) | 256 (≈ 468 µM) |  |  |  |  |
| C[C@@H](O)[C@H]1C(=O)N2C(C(=O)O)=C(SCCNC=N)C[C@H]12 [IMIPENEM ANHYDROUS] | ≥ 32 | ≥ 32 | 32 (≈ 107 µM) | ≥ 32 |  |  |  |  |
| C[C@@H](O)[C@H]1C(=O)N2C(C(=O)O)=C(S[C@@H]3CN[C@H](C(=O)N(C)C)C3)[C@H](C)[C@H]12 [MEROPENEM] | ≥ 32 | 2 (≈ 5.22 µM) | 4 (≈ 10.4 µM) | ≥ 32 |  |  |  |  |
| CCN1CCN(C(=O)N[C@@H](C(=O)N[C@@H]2C(=O)N3[C@@H]2SC(C)(C)[C@@H]3C(=O)O)c2ccccc2)C(=O)C1=O [PIPERACILLIN] | ≥ 256 | ≥ 256 | 64 (≈ 124 µM) | ≥ 256 |  |  |  |  |
| CC1(C)S[C@@H]2[C@H](NC(=O)[C@H](C(=O)O)c3ccsc3)C(=O)N2[C@H]1C(=O)O [TICARCILLIN] | ≥ 256 | ≥ 256 | ≥ 256 | ≥ 256 |  |  |  |  |
| COLISTIN |  |  |  |  | 4 | > 16 | 2 | > 16 |

From ChEMBL document CHEMBL1154408, “Molecular epidemiology of imipenem-resistant Acinetobacter haemolyticus and Acinetobacter baumannii isolates carrying plasmid-mediated OXA-40 from a Portuguese hospital” (2007)
